Among the data in the SangsterLogP compilation are logP values, retold here.

A short description of the series: method code SF, from PMID: 5081587.
By logP is commonly meant the decadic logarithm of the partition coefficient of the neutral form, usually between octanol and water. Read a low logP as a more hydrophilic compound. As to `O=NN(CCCl)C(=O)NC1CCSCC1`, the logP was found to be 2.07.

`O=NN(CCCl)C(=O)NC1C=CCCC1` (stereo not drawn): the logP was 2.45.

`O=NN(CCF)C(=O)NC1CSCSC1` showed a logP of 1.54.

Regarding `CN(C)/N=N/c1nc[nH]c1C(N)=O`, the logP was -0.24.

The compound `O=NN(CCCl)C(=O)NC1CCCCC1Cl` (stereo not drawn) returned a logP of 2.73.

`O=NN(CCCl)C(=O)NC1CSCSC1` gave a logP of 2.08.

Compound `O=NN(CCF)C(=O)NC1CCSCC1` showed a lipophilicity (logP) of 1.43.

Turning to `O=NN(CCCl)C(=O)NCCCl`, the logP stood at 1.53.

In turn, `O=NN(CCCl)C(=O)NC1CCCC1` registered a logP of 2.19.

Consider `O=P1(N(CCCl)CCCl)NCCCO1` (stereo not drawn), for which the log partition coefficient (logP) stood at 0.63.

On to `O=NN(CCCl)C(=O)NC1CC2CCC1C2` (stereo not drawn), for which the logP was found to be 2.98.

Regarding `O=NN(CCCl)C(=O)NC1CCC(=O)NC1=O` (stereo not drawn), the logP stood at 0.37.

`O=NN(CCCl)C(=O)NC1CCS(=O)(=O)CC1` gave a logP of 0.19.
